Source: article PMC5564600 (Oncotarget, 2017)

How the values were obtained:
Assay in all cases: biochemical
Type in all cases: binding
panel of 442 kinases [1] = molecular target: T1, panel of 442 kinases (Homo sapiens, UniProt Q13163); details: kinase MEK5; for remaining activity at 1 µM: read-out: % of control at 1 µM
T1 construct: purchased Ambit Biosciences (scanMAXX KINOMEscan)
T1 sequence (Q13163 1-448): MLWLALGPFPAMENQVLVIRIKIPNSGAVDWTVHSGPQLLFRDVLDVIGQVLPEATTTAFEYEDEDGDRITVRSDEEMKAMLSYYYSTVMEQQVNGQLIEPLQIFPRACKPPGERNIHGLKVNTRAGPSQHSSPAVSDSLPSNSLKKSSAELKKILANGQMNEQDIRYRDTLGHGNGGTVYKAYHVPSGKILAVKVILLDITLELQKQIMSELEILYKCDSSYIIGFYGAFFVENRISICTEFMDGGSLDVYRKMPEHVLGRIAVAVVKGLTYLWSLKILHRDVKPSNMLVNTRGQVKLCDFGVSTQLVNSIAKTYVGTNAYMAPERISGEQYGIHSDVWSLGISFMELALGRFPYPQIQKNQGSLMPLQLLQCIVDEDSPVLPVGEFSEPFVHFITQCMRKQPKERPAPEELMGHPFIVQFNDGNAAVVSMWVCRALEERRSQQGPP

panel of 442 kinases [2] = molecular target: T2, panel of 442 kinases (Homo sapiens, UniProt P21709); details: EPHA1; for remaining activity at 1 µM: read-out: % of control at 1 µM
T2 construct: purchased Ambit Biosciences (scanMAXX KINOMEscan)
T2 sequence (P21709 26-976): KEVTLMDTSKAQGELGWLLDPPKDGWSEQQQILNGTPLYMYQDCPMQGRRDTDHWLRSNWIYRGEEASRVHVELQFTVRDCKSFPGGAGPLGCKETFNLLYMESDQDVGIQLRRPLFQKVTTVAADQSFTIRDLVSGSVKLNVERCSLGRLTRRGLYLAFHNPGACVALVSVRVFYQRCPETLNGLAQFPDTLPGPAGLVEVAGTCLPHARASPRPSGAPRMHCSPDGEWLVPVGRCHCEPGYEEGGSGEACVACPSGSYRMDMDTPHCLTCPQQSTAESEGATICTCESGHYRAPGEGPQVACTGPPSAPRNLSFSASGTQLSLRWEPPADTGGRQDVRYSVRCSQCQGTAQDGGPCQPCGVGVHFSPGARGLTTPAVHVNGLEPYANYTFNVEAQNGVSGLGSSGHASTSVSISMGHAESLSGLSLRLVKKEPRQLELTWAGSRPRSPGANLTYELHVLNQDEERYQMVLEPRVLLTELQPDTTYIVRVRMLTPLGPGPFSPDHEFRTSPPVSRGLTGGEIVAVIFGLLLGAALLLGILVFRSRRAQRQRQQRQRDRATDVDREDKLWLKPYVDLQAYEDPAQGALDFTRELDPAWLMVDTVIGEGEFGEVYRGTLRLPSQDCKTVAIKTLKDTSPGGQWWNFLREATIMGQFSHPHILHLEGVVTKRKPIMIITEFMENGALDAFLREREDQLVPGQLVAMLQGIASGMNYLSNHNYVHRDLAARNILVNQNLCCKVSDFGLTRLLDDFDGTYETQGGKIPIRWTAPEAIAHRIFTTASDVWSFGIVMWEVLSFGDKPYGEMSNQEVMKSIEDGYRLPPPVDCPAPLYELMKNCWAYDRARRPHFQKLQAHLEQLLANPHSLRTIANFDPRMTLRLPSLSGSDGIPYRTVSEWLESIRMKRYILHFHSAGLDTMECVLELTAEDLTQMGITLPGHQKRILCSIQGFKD

panel of 442 kinases [3] = molecular target: T3, panel of 442 kinases (Homo sapiens, UniProt P42685); details: kinase FRK; for remaining activity at 1 µM: read-out: % of control at 1 µM
T3 construct: purchased Ambit Biosciences (scanMAXX KINOMEscan)

panel of 442 kinases [4] = molecular target: T4, panel of 442 kinases (Homo sapiens, UniProt Q86Y07); details: kinase VRK2; for remaining activity at 1 µM: read-out: VRK2 (% of control at 1 µM)
T4 construct: purchased Ambit Biosciences (scanMAXX KINOMEscan)

panel of 442 kinases [5] = molecular target: T5, panel of 442 kinases (Homo sapiens, UniProt Q9UQ88); details: CDC2L2; for remaining activity at 1 µM: read-out: % of control at 1 µM
T5 construct: purchased Ambit Biosciences (scanMAXX KINOMEscan)
T5 sequence (Q9UQ88 1-783): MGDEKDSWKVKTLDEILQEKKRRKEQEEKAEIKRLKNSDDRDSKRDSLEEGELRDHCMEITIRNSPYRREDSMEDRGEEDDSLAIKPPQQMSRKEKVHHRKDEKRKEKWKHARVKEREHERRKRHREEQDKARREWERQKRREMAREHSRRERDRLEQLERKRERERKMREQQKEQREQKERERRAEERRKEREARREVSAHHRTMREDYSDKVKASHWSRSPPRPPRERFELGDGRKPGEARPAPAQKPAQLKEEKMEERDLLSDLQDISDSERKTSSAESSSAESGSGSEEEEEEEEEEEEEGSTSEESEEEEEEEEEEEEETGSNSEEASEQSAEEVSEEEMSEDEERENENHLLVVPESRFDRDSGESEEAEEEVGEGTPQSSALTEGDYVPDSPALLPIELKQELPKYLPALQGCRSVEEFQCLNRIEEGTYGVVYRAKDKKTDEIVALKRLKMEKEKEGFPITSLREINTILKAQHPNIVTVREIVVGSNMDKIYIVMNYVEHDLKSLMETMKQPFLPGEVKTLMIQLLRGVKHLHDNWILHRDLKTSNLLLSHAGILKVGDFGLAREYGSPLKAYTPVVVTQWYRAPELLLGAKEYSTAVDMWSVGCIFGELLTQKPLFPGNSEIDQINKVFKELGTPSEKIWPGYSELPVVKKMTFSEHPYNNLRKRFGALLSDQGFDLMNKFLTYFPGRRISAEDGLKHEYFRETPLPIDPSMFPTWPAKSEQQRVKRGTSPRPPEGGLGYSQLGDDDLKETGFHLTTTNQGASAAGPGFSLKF

panel of 442 kinases [6] = molecular target: T6, panel of 442 kinases (Homo sapiens, UniProt P49137); details: kinase MAPKAPK2; for remaining activity at 1 µM: read-out: % of control at 1 µM
T6 construct: purchased Ambit Biosciences (scanMAXX KINOMEscan)

[7] = 10 µM, read-out: % of control at 10 µM

T6 sequence (P49137 whole entry): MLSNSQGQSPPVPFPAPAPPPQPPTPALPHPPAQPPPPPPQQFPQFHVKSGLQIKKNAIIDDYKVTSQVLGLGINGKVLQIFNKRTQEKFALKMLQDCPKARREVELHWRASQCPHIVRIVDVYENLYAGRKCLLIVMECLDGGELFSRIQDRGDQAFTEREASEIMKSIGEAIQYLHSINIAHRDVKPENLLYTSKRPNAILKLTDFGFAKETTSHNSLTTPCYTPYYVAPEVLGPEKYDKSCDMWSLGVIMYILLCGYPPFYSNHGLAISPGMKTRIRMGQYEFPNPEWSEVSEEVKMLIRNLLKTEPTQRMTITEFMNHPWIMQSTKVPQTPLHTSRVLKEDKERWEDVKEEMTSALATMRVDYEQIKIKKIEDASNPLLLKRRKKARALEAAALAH
T4 sequence (Q86Y07 whole entry): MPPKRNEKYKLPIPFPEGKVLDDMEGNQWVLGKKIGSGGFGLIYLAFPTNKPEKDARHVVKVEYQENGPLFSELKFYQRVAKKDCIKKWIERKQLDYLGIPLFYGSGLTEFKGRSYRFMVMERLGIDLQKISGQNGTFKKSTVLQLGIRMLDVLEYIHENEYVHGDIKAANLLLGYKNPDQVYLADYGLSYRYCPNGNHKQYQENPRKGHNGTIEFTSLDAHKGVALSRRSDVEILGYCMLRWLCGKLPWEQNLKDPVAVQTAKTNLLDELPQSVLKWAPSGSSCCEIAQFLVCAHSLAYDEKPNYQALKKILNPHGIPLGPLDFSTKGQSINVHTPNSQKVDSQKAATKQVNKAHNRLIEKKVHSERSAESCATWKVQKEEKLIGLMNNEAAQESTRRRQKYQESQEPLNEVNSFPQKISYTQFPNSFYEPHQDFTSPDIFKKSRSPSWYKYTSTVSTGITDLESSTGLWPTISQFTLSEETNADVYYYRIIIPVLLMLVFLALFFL
T3 sequence (P42685 whole entry): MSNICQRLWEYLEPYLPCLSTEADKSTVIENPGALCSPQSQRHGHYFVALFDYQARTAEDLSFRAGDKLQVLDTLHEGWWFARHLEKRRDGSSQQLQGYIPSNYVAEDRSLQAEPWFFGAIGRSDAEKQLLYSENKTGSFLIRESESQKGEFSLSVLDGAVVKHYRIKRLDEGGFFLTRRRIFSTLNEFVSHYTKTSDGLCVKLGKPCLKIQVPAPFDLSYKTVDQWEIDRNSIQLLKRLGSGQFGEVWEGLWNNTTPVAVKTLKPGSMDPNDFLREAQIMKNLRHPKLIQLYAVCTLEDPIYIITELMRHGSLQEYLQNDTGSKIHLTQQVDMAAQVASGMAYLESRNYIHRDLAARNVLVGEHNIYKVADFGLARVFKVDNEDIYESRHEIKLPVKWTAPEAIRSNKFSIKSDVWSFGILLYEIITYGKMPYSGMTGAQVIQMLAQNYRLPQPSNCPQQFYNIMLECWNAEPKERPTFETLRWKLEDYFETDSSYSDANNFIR

Row | SMILES | remaining activity at 1 µM (panel of 442 kinases [1]) [%] | remaining activity at 10 µM (panel of 442 kinases [1]; [7]) [%] | remaining activity at 1 µM (panel of 442 kinases [2]) [%] | remaining activity at 10 µM (panel of 442 kinases [2]; [7]) [%] | remaining activity at 1 µM (panel of 442 kinases [3]) [%] | remaining activity at 10 µM (panel of 442 kinases [3]; [7]) [%] | remaining activity at 1 µM (panel of 442 kinases [4]) [%] | remaining activity at 10 µM (panel of 442 kinases [4]; 10 µM, read-out: VRK2 (% of control at 10 µM)) [%] | remaining activity at 1 µM (panel of 442 kinases [5]) [%] | remaining activity at 10 µM (panel of 442 kinases [5]; [7]) [%] | remaining activity at 1 µM (panel of 442 kinases [6]) [%] | remaining activity at 10 µM (panel of 442 kinases [6]; [7]) [%]
1 | Nc1cc(C(F)(F)F)c(-c2cc(N3CCOCC3)nc(N3CCOCC3)n2)cn1 [Buparlisib] | 88 | 85 | 90 | 100 | 100 | 100 | 83 | 100 | 100 | 99 | 100 | 100
2 | Cn1c(=O)n(-c2ccc(C(C)(C)C#N)cc2)c2c3cc(-c4cnc5ccccc5c4)ccc3ncc21 [Dactolisib, 2-methyl-2-[4-(3-methyl-2-oxo-8-quinolin-3-yl-2,3-dihydroimidazo[4,5-c]quinolin-1-yl)-phenyl] propionitrile] | 42 | – | 100 | – | 85 | – | 83 | – | 89 | – | 92 | –
3 | COc1ncc(-c2ccc3nccc(-c4ccnnc4)c3c2)cc1NS(=O)(=O)c1ccc(F)cc1F [Omipalisib] | 69 | – | 97 | – | 98 | – | 100 | – | 100 | – | 100 | –
4 | FC(F)c1nc2ccccc2n1-c1nc(N2CCOCC2)nc(N2CCOCC2)n1 [ZSTK474, 2-(difluoromethyl)-1-[4,6-di(4-morpholinyl)-1,3,5-triazin-2-yl]-1H-benzimidazole] | 99 | – | 99 | – | 83 | – | 100 | – | 100 | – | 99 | –
